# Test system: activation of NF-κB by TNFα
# Experiment: NF-κB luciferase reporter assay (TNFα-stimulated NIH-3T3-KBFLuc cells)
# Assay type: cell-based
# Settings: for Experiment 1 % of activity / Experiment 2 % of activity / Experiment 3 % of activity / Conclusions: Is inhibition of TNF activation of NF-κB observed?: cannabinoid 10 μM alone; for Experiment 1 % of activity / Experiment 2 % of activity / Experiment 3 % of activity: TNFα 30 ng/mL = 100%; for Conclusions: Is inhibition of TNF activation of NF-κB observed?: mean of three experiments
# Procedure: The NF-kB pathway inhibition in response to treatment with the Cannabinoid and NHP either as single agents or in combination will be monitored using the Luciferase Reporter gene assay described in Del Prete et al, J. Nat. Prod.
# For the anti-NF-κB activity stably transfected NIH-3T3-KBFLuc cells are treated with different concentration of NHP compounds for 30 minutes and then stimulated with TNF-α (30 ng/mL). After treatment, the cells are washed twice in phosphate-buffered saline and lysed in 25 mM Tris-phosphate pH 7.8, 8 mM MgCl2, 1 mM DTT, 1% Triton X-100, and 7% glycerol during 15 min at room temperature in a horizontal shaker. Luciferase activity in the supernatant is measured using a TriStar2 Berthold/LB942 multimode reader (Berthold Technologies) following the manufacturer's instructions of the luciferase assay kit (Promega, Madison, Wis., US). For NF-κB inhibition the RLU (relative light units) is calculated, and the results are normalized to 100% stimulation induced by induced by TNF-α (100% activation). The results are presented from three independent experiments.
Structure (SMILES),"inhibition of NF-κB activity by the cannabinoid itself (10 μM, alone)",Experiment 1 % of activity [%],Experiment 2 % of activity [%],Experiment 3 % of activity [%],Conclusions: Is inhibition of TNF activation of NF-κB observed?
"C=C(C)[C@@H]1CCC(C)=C[C@H]1c1c(O)cc(CCCCC)cc1O [CBD, cannabidiol]",non-inhibitory,93.6,97.0,108.2,Negative (Only treatments that the mean of three consecutive independent experiments shows a positive result (activity ≤50%) are considered inhibitory of NF-κB activity)
"CCCCCc1cc(O)c2c(c1)OC(C)(C)[C@@H]1CCC(C)=C[C@@H]21 [THC, tetrahydrocannabinol]",,102.5,97.8,98.5,Negative (Only treatments that the mean of three consecutive independent experiments shows a positive result (activity ≤50%) are considered inhibitory of NF-κB activity)

# — patent publication US20210196670A1, “ORAL FORMULATIONS OF LAVENDER AND CANNABINOIDS” (EMERALD HEALTH THERAPEUTICS CANADA INC., priority 2018, published 2021)
